Source: PubChem BioAssay (NCI)
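How tested: cells in 96-well plates exposed to compound for 48 hours at five concentrations. Here, GI50 denotes the concentration required for 50% inhibition of growth. At the TGI there is no net growth.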

Experiments:
Assay in all cases: growth of human tumour cells (NCI), 48 h
UACC-257 melanoma = tested on: UACC-257 melanoma
OVCAR-3 ovarian = tested on: OVCAR-3 ovarian
NCI/ADR-RES ovarian = tested on: NCI/ADR-RES ovarian
HOP-92 NSCLC = tested on: HOP-92 NSCLC
COLO 205 colon = tested on: COLO 205 colon
M14 melanoma = tested on: M14 melanoma
NCI-H226 lung = tested on: NCI-H226 lung
NCI-H522 lung = tested on: NCI-H522 lung
MALME-3M melanoma = tested on: MALME-3M melanoma
SW-620 colon = tested on: SW-620 colon
HS 578T breast = tested on: HS 578T breast
IGROV1 ovarian = tested on: IGROV1 ovarian
A549 NSCLC = tested on: A549 NSCLC
NCI-H460 lung = tested on: NCI-H460 lung
SK-MEL-2 melanoma = tested on: SK-MEL-2 melanoma
MDA-MB-231 breast = tested on: MDA-MB-231 breast
PC-3 prostate = tested on: PC-3 prostate
SN12C renal = tested on: SN12C renal
TK-10 renal = tested on: TK-10 renal
786-0 renal = tested on: 786-0 renal
DU-145 prostate = tested on: DU-145 prostate
T-47D breast = tested on: T-47D breast
NCI-H23 lung = tested on: NCI-H23 lung
RXF 393 renal = tested on: RXF 393 renal
SK-OV-3 ovarian = tested on: SK-OV-3 ovarian
OVCAR-8 ovarian = tested on: OVCAR-8 ovarian
ACHN renal = tested on: ACHN renal
OVCAR-4 ovarian = tested on: OVCAR-4 ovarian
HCC-2998 colon = tested on: HCC-2998 colon
A498 renal = tested on: A498 renal
MDA-MB-435 = tested on: MDA-MB-435
SF-539 CNS = tested on: SF-539 CNS
KM12 colon = tested on: KM12 colon
BT-549 breast = tested on: BT-549 breast
SK-MEL-5 melanoma = tested on: SK-MEL-5 melanoma
CAKI-1 renal = tested on: CAKI-1 renal
LOX IMVI melanoma = tested on: LOX IMVI melanoma
HOP-62 NSCLC = tested on: HOP-62 NSCLC
U251 CNS = tested on: U251 CNS
K-562 leukemia = tested on: K-562 leukemia
SR leukemia = tested on: SR leukemia
SNB-19 CNS = tested on: SNB-19 CNS
CCRF-CEM leukemia = tested on: CCRF-CEM leukemia
OVCAR-5 ovarian = tested on: OVCAR-5 ovarian
MCF7 breast = tested on: MCF7 breast
UACC-62 melanoma = tested on: UACC-62 melanoma
UO-31 renal = tested on: UO-31 renal
MOLT-4 leukemia = tested on: MOLT-4 leukemia
RPMI-8226 leukemia = tested on: RPMI-8226 leukemia
HT29 colon = tested on: HT29 colon
SF-268 CNS = tested on: SF-268 CNS
SK-MEL-28 melanoma = tested on: SK-MEL-28 melanoma
HL-60(TB) leukemia = tested on: HL-60(TB) leukemia

Work on `C=C1c2c(C)nn(-c3ccc(C#CCOC4OC(CO)C(O)C(O)C4O)cc3)c2N(C)C23C[C@H]1C1(C)c4c(C)nn(-c5ccc(C#CCOC6OC(CO)C(O)C(O)C6O)cc5)c4N(C)C(C)(C[C@H]12)C3` (stereo partly specified) yielded a GI50 (UACC-257 melanoma) of 1820 nM, a TGI (UACC-257 melanoma) of 4560 nM and a GI50 (OVCAR-3 ovarian) of 1520 nM. It also gave a TGI (OVCAR-3 ovarian) of 3800 nM, a GI50 (NCI/ADR-RES ovarian) of 5430 nM and a TGI (NCI/ADR-RES ovarian) of 47000 nM. It also gave a GI50 (HOP-92 NSCLC) of 437 nM, a TGI (HOP-92 NSCLC) of 2520 nM and a GI50 (COLO 205 colon) of 1470 nM. It also gave a TGI (COLO 205 colon) of 2880 nM, a GI50 (M14 melanoma) of 1670 nM and a TGI (M14 melanoma) of 3440 nM. For the same molecule, the GI50 (NCI-H226 lung) was 1620 nM, the TGI (NCI-H226 lung) was 3700 nM and the GI50 (NCI-H522 lung) was 1670 nM. It also gave a TGI (NCI-H522 lung) of 3260 nM, a GI50 (MALME-3M melanoma) of 1870 nM and a TGI (MALME-3M melanoma) of 3660 nM. The GI50 (SW-620 colon) was 1720 nM, the TGI (SW-620 colon) was 3770 nM and the GI50 (HS 578T breast) was 472 nM. The TGI (HS 578T breast) was 9850 nM, the GI50 (IGROV1 ovarian) was 1560 nM and the TGI (IGROV1 ovarian) was 3950 nM. It also gave a GI50 (A549 NSCLC) of 1680 nM, a TGI (A549 NSCLC) of 4090 nM and a GI50 (NCI-H460 lung) of 1690 nM. It also gave a TGI (NCI-H460 lung) of 3850 nM, a GI50 (SK-MEL-2 melanoma) of 1760 nM and a TGI (SK-MEL-2 melanoma) of 3390 nM. It also gave a GI50 (MDA-MB-231 breast) of 1500 nM, a TGI (MDA-MB-231 breast) of 3060 nM and a GI50 (PC-3 prostate) of 702 nM. For the same molecule, the TGI (PC-3 prostate) was 2560 nM, the GI50 (SN12C renal) was 1380 nM and the TGI (SN12C renal) was 3720 nM. It also gave a GI50 (TK-10 renal) of 2010 nM, a TGI (TK-10 renal) of 4040 nM and a GI50 (786-0 renal) of 2660 nM. For the same molecule, the TGI (786-0 renal) was 7780 nM, the GI50 (DU-145 prostate) was 1970 nM and the TGI (DU-145 prostate) was 5160 nM. It also gave a GI50 (T-47D breast) of 687 nM, a TGI (T-47D breast) of 6800 nM and a GI50 (NCI-H23 lung) of 2330 nM. The TGI (NCI-H23 lung) was 6590 nM, the GI50 (RXF 393 renal) was 1620 nM and the TGI (RXF 393 renal) was 3520 nM. The GI50 (SK-OV-3 ovarian) was 1720 nM, the TGI (SK-OV-3 ovarian) was 3110 nM and the GI50 (OVCAR-8 ovarian) was 1000 nM. It also gave a TGI (OVCAR-8 ovarian) of 3840 nM, a GI50 (ACHN renal) of 2420 nM and a TGI (ACHN renal) of 10600 nM. The GI50 (OVCAR-4 ovarian) was 1680 nM, the TGI (OVCAR-4 ovarian) was 9940 nM and the GI50 (HCC-2998 colon) was 1570 nM. For the same molecule, the TGI (HCC-2998 colon) was 3150 nM, the GI50 (A498 renal) was 1500 nM and the TGI (A498 renal) was 3180 nM. For the same molecule, the GI50 (MDA-MB-435) was 1670 nM, the TGI (MDA-MB-435) was 3770 nM and the GI50 (SF-539 CNS) was 1780 nM. It also gave a TGI (SF-539 CNS) of 3330 nM, a GI50 (KM12 colon) of 1440 nM and a TGI (KM12 colon) of 2900 nM. It also gave a GI50 (BT-549 breast) of 1300 nM, a TGI (BT-549 breast) of 2970 nM and a GI50 (SK-MEL-5 melanoma) of 1380 nM. The TGI (SK-MEL-5 melanoma) was 2710 nM, the GI50 (CAKI-1 renal) was 2810 nM and the TGI (CAKI-1 renal) was 11600 nM. It also gave a GI50 (LOX IMVI melanoma) of 1370 nM, a TGI (LOX IMVI melanoma) of 2790 nM and a GI50 (HOP-62 NSCLC) of 1490 nM. It also gave a TGI (HOP-62 NSCLC) of 2880 nM, a GI50 (U251 CNS) of 1190 nM and a TGI (U251 CNS) of 2590 nM. It also gave a GI50 (K-562 leukemia) of 1890 nM, a TGI (K-562 leukemia) of 6750 nM and a GI50 (SR leukemia) of 3280 nM. It also gave a TGI (SR leukemia) of over 100000 nM, a GI50 (SNB-19 CNS) of 1660 nM and a TGI (SNB-19 CNS) of 3950 nM. For the same molecule, the GI50 (CCRF-CEM leukemia) was 1040 nM, the TGI (CCRF-CEM leukemia) was 5030 nM and the GI50 (OVCAR-5 ovarian) was 1780 nM. It also gave a TGI (OVCAR-5 ovarian) of 3540 nM, a GI50 (MCF7 breast) of 1380 nM and a TGI (MCF7 breast) of 3200 nM. For the same molecule, the GI50 (UACC-62 melanoma) was 1220 nM, the TGI (UACC-62 melanoma) was 2860 nM and the GI50 (UO-31 renal) was 2830 nM. It also gave a TGI (UO-31 renal) of 10100 nM, a GI50 (MOLT-4 leukemia) of 1280 nM and a TGI (MOLT-4 leukemia) of 3880 nM. The GI50 (RPMI-8226 leukemia) was 290 nM, the TGI (RPMI-8226 leukemia) was 1720 nM and the GI50 (HT29 colon) was 1630 nM. For the same molecule, the TGI (HT29 colon) was 4210 nM, the GI50 (SF-268 CNS) was 1750 nM and the TGI (SF-268 CNS) was 3570 nM. It also gave a GI50 (SK-MEL-28 melanoma) of 1900 nM, a TGI (SK-MEL-28 melanoma) of 3520 nM and a GI50 (HL-60(TB) leukemia) of 2070 nM. It also gave a TGI (HL-60(TB) leukemia) of 4430 nM.
